Test: Color of the formulations: colorimetry of thin films on contrast map (spectro-colorimeter Minolta CM2600D), L*a*b* system
Assay type: physicochemical
Settings: result in words; equivalent formulations (2 % merocyanine)
Experimental: Protocol for evaluating the color of the formulations
The color of the formulations was evaluated after preparation of thin films on contrast map. The formulations were deposited within a circle of 2.2 cm of diameter and planed to obtain thicknesses of reproducible deposit. The colorimetric measures were then made by means of a spectro-colorimeter Minolta CM2600D in two points of the film. This operation is twice reproduced, which leads to 4 experimental values by formulation.
The results are expressed in the system (L *, has *, b *) in which L* represents the luminance, a* represents the red-green axis (-a* = green, +a* = red) and b* represents the yellow-blue axis (-b* blue, +b* yellow). So, a* and b* express the shade of the compound.
The difference of color ΔE* was calculated from the variations ΔL*, Δa* et Δb* between the compound (2) and the compound MC11 with the following equation : ((ΔE*))^2 = ((ΔL*))^2 + ((Δa*))^2 + ((Δb*))^2 [formula] • ΔL* = L* formulation with compound MC11 - L* formulation with compound (2) • Δa* = a* formulation with compound MC11 - a* formulation with compound (2) • Δb* = b* formulation with compound MC11 - b* formulation with compound (2)
We consider that the difference of color between the two compounds is significant if ΔE* > 2.

color compared with compound MC11 of WO2008/090066: significantly less yellow
Compound: CCOCCOC(=O)/C(C#N)=C1\C=C(NCCCOC)CCC1 [Compound (2), 2-ethoxyethyl (2Z)-cyano{3-[(3-methoxypropyl)amino]cyclohex-2-en-1-ylidene}ethanoate]

Reference: EP2945607B1, “COSMETIC OR DERMATOLOGICAL EMULSION COMPRISING A MEROCYANINE AND AN EMULSIFYING SYSTEM CONTAINING AN ALKALI METAL SALT OF A PHOSPHORIC ACID ESTER OF A FATTY ALCOHOL” (L'Oréal, priority 2013, dated 2014)
